Biological target: T1, hGlyT-2 (Homo sapiens, UniProt Q9Y345)
T1 construct: expressed in transfected cells
T1 sequence (Q9Y345 1-797): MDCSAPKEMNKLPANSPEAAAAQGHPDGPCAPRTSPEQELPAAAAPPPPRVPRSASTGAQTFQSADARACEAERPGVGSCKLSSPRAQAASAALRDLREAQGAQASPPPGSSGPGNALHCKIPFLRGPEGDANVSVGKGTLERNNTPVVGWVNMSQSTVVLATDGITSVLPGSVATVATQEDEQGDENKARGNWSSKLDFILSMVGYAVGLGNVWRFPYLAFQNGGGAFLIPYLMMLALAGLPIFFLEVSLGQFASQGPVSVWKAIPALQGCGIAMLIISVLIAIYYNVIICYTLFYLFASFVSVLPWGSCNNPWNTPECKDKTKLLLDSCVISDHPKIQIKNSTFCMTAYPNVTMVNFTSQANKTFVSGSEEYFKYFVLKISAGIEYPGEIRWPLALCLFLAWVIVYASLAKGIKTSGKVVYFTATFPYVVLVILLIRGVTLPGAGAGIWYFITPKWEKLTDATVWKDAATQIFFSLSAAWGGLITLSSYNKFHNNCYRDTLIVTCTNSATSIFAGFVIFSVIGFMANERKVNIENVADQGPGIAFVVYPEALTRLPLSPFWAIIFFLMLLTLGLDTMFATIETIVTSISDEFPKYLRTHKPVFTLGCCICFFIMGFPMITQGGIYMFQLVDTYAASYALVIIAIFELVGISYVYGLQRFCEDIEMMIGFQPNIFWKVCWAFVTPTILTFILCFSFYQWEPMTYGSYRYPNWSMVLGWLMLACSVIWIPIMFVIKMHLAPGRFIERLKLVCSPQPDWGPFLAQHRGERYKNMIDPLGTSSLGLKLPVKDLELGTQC
Assay: Glycine uptake assay, CHO cells stably transfected with hGlyT-2
Assay type: cell-based
Conditions: [3H]-glycine 30 μM, 37° C., 10 minutes, read-out: Inhibition of glycine transport by hGlyT-2 IC50
Description: Glycine uptake assays were performed as described by Morrow et al. (FEBS Lett. 1998, 439, 334–340) using CHO cells stably transfected with either hGlyT-1b or hGlyT-2. Cells were grown in 96 well microtitre plates (30,000 cells/well) for 24–48 hours before removal of culture medium and addition of Hanks Balanced Salt Solution (HBSS) containing [^3H]-glycine (30 μM) and varying concentrations of test compounds. Plates were incubated at 37° C. for 10 minutes and uptake terminated by washing three times with ice-cold HBSS. After removal of excess liquid, scintillation cocktail was added to each well, prior to counting in a plate counter. Data were analysed using the GraphPad Prism™ analysis package and the sigmoid dose-response curve fitting option to produce IC50 (the concentration of test compound producing 50% inhibition of uptake) values.

In order of rising IC50:
1. Cc1cc(C(=O)NCC2(N(C)C)CCC2)cc(C)c1OCc1ccccc1 [Example 8, 4-Benzyloxy-3,5-dimethyl-N-[1-(dimethylaminocyclobutyl)methyl]benzamide]  16 nM
2. Cc1cc(C(=O)NCC2(N(C)C)CCCC2)cc(C)c1OCc1ccccc1 [Example 9, 4-Benzyloxy-3,5-dimethyl-N-[(1-dimethylaminocyclopentyl)methyl]benzamide]  27 nM
3. COc1cc(C(=O)NCC2(N(C)C)CCCC2)cc(OC)c1OCc1ccc(C)cc1 [Example 10, 3,5-Dimethoxy-4-(4-methylbenzyloxy)-N-[(1-dimethylaminocyclopentyl)methyl]benzamide]  30 nM
4. Cc1cc(C(=O)NCC2(N(C)C)CCCC2)cc(C)c1OCc1ccsc1 [Example 20, 3,5-Dimethyl-4-(3-thienyl)methoxy-N-[(1-dimethylaminocyclopentyl)methyl]benzamide]  32 nM
5. COc1cc(C(=O)NCC2(N(C)C)CCCC2)cc(OC)c1OC(C)c1ccccc1 (stereo not drawn) [Example 11, 3,5-Dimethoxy-4-(1-phenyl)ethoxy-N-[1-(dimethylaminocyclopentyl)methyl]benzamide]  35 nM
6. COc1cc(C(=O)NCC2(N(C)C)CCCC2)cc(OC)c1OCc1ccc(Cl)cc1 [Example 12, 4-(4-Chloro)benzyloxy-3,5-dimethoxy-N-[1-(dimethylaminocyclopentyl)methyl]benzamide]  44 nM
7. COc1cc(C(=O)NCC2(N(C)C)CCCCC2)cc(OC)c1OCC1CCCCC1 [Example 13, 4-(Cyclohexylmethoxy)-3,5-dimethoxy-N-[(1-dimethylaminocyclohexyl)methyl]benzamide]  71 nM
8. COc1cc(C(=O)NCC2(N(C)C)CCCC2)cc(OC)c1OCc1ccc(C(F)(F)F)cc1 [Example 14, 3,5-Dimethoxy-4-(4-trifluoromethylbenzyloxy)-N-[(1-dimethylaminocyclopentyl)methyl]benzamide]  76 nM
9. CCCCOc1c(OC)cc(C(=O)NCC2(N(C)C)CCCC2)cc1OC [Example 7, 4-n-Butyloxy-3,5-dimethoxy-N-[(1-dimethylaminocyclopentyl)methyl]benzamide]  77 nM
10. COc1cc(C(=O)NCC2(N(C)C)CCCC2)cc(OC)c1OCC(C)C [Example 15, 3,5-Dimethoxy-4-(2-methylpropoxy)-N-[(1-dimethylaminocyclopentyl)methyl]benzamide]  79 nM
11. COc1cc(C(=O)NCC2(N(C)C)CCCCC2)cc(OC)c1OCc1ccccc1 [Example 5, 4-Benzyloxy-3,5-dimethoxy-N-[(1-dimethylaminocyclohexyl)methyl]benzamide]  84 nM
12. Cc1cc(C(=O)NCC2(N(C)C)CCCCCC2)cc(C)c1OCc1ccccc1 [Example 16, 4-Benzyloxy-3,5-dimethyl-N-[(1-dimethylaminocycloheptyl)methyl]benzamide]  92 nM
13. COc1cc(C(=O)NCC2(N(C)C)CCCC2)cc(OC)c1OCCc1ccccc1 [Example 18, 3,5-Dimethoxy-4-(2-phenylethoxy)-N-[(1-dimethylaminocyclopentyl)methyl]benzamide]  156 nM
14. COc1cc(C(=O)NCC2(N(C)C)CCCC2)cc(OC)c1OCc1cccc2ccccc12 [Example 19, 3,5-Dimethoxy-4-(1-naphthyl)methoxy-N-[(1-dimethylaminocyclopentyl)methyl]benzamide]  215 nM
15. COc1cc(C(=O)NCC2(N(C)C)CCCC2)cc(OC)c1OC1CCCC1 [Example 21, 4-Cyclopentyloxy-3,5-dimethoxy-N-[(1-dimethylaminocyclopentyl)methyl]benzamide]  329 nM

Test system: rats
Assay: Chung model of neuropathy (L5 spinal nerve ligation, von Frey withdrawal threshold)
Assay type: in vivo, rat
Conditions: twenty minutes after subcutaneous injection; Example 2 20 mg/kg, morphine sulphate 2 mg/kg, gabapentin 50 mg/kg; post-surgery pre-drug 0.8±0.1 g

In order of falling Withdrawal threshold:
1. COc1cc(C(=O)NCC2(N(C)C)CCCC2)cc(OC)c1OCc1ccccc1 [Example 2, 4-Benzyloxy-3,5-dimethoxy-N-[1-(dimethylaminocyclopentyl)methyl]benzamide]  4.7 ± 1.15 g
2. CN1CC[C@]23c4c5ccc(O)c4O[C@H]2[C@@H](O)C=C[C@H]3[C@H]1C5.O=S(=O)(O)O [morphine, morphine sulphate]  4.2 ± 1.5 g
3. NCC1(CC(=O)O)CCCCC1 [gabapentin]  3.2 ± 1.5 g

From patent publication US7126027B2, “N-[(1-dimethylaminocycloalkyl)methyl]benzamide derivatives” (Akzo Nobel N.V., priority 2002, dated 2006)
